Key:
bone healing = experiment: Bone healing in diverse animal models; format: in vivo
Text: Angiogenesis is a crucial part of bone healing.

BMP2 [1] = experiment: Synergy with BMP2 in vivo, ossicle formation
Text: (§1) BMP2, a potent osteogenic agent is also a strong stimulator of angiognenesis.

BMP2 [2] = experiment: Synergy with BMP2 in vitro; format: cell-based; details: combination with BMP2, in vitro
Text: as §1

TGFbeta = TGFbeta in murine calvarial organ culture (FIG. 2C); format: cell-based, mouse
Method: (§2) We have previously reported AC-100 treatment increases PGE2, TGFbeta and Fibronectin levels in the conditioned media from the murine calvarial organ culture. Histological evaluation of the bones indicated AC-100 increased the amount of new bone formation and numbers of osteoblasts.
(§3) To quantitatively measure the increase in FGF2 in AC-100 treated bones, lysates were harvested over a comprehensive timecourse (30 min, 1 hr, 2 hr, 6 hr, 24 hr, 48 hr, 72 hr, day 4, day 5) and analysed for FGF2 and other bone anabolic factors using ELISA. […] Consistent with our previous findings AC-100 increased PGE2 in the conditioned media and TGFbeta and Fibronectin in both the conditioned media and bone lysate.
(§4) In addition, this response roughly correlated with expression of PGE-2 following AC-100 treatment (2B), TGF-β (2C) and Fibronectin (2D). Increases in PGE2 in the same cultures were observed from […].

FGF2 [3] = experiment: ELISA timecourse of FGF2 in calvaria organ culture lysates and conditioned media (FIG. 2A); format: cell-based, mouse
Method: as §3, §4

[4] = tested on: murine calvarial organ culture; experiment: Histological evaluation of bones from murine calvarial organ culture; format: cell-based, mouse; details: histological evaluation of the bones
Text: as §2

Fibronectin = Fibronectin in murine calvarial organ culture (FIG. 2D); format: cell-based, mouse
Method: as §2, §3, §4

FGF-2 = FGF-2 production in mouse calvaria organ cultures (FIG. 1); format: cell-based; details: tissue lysates and conditioned media
Method: AC-100 at both 1 and 10 uM concentrations increased the production of FGF-2 in mouse calvaria organ cultures. Increases were found in both tissue lysates and in the conditioned media of cultures treated with AC-100.

FGF2 [5] = experiment: Angiogenesis antibody array (TranSignal Mouse Angiogenesis Antibody Array) of lysates from AC-100 treated calvariae; format: cell-based; details: calvaria lysates
Text: To investigate whether AC-100 modulates bone anabolic factors that are sequestered within the bone matrix we have analysed lysates from AC-100 treated calvariae.
Initial experiments analysed the lysates using an angiogenesis antibody array (TranSignal Mouse Angiogenesis Antibody Array, Panomics).

PGE2 = PGE2 in murine calvarial organ culture (FIG. 2B); format: cell-based, mouse
Method: as §2, §3, §4

[6] = conditioned media, murine calvarial organ culture, previously reported

Sequence: TDLQERGDNDISPFSGDGQPFKD [AC-100]
- healing (bone healing): earlier healing
- new bone formed (bone healing): increased amount and better quality of new bone
- osteons and blood vessels in ossicles (BMP2 [1]; BMP2 and AC-100 co-treatment): contain mature osteons with new blood vessels
- structure of ossicles formed (BMP2 [1]; BMP2 and AC-100 co-treatment versus BMP2 alone): more mature structure
- activity with BMP2 in vivo (BMP2 [1]; combination with BMP2, in vivo): synergistic activities
- activity with BMP2 in vitro (BMP2 [2]): synergistic activities
- TGFbeta in bone lysate (TGFbeta; ELISA, bone lysate): increased
- TGFbeta in conditioned media (TGFbeta; ELISA, conditioned media): increased
- TGFbeta levels (TGFbeta; [6]): increases
- FGF2 in conditioned media (FGF2 [3]; ELISA, conditioned media): not detectable
- FGF2 in bone lysates (FGF2 [3]; ELISA, lysates, 30 min through day 5): potent increase
- production of FGF-2 over time (FIG. 2A) (FGF2 [3]; approximately 1 hr to 5 days): increased
- amount of new bone formation [4]: increased
- numbers of osteoblasts [4]: increased
- Fibronectin in bone lysate (Fibronectin; ELISA, bone lysate): increased
- Fibronectin in conditioned media (Fibronectin; ELISA, conditioned media): increased
- Fibronectin levels (Fibronectin; [6]): increases
- production of FGF-2 (FGF-2; AC-100 1 uM): increased
- production of FGF-2 (FGF-2; AC-100 10 uM): increased
- FGF2 signal at 2 hr (FGF2 [5]; 2 hr): increased
- FGF2 signal 24 hr through day 3 (FGF2 [5]; 24 hr through day 3): the same as the control bones
- FGF2 signal at day 5 (FGF2 [5]; day 5, control signal significantly reduced): still strong
- FGF2 signal, overall course (FGF2 [5]; versus control bones): earlier and prolonged increase
- PGE2 in conditioned media (PGE2; ELISA, conditioned media): increased
- PGE2 levels (PGE2; [6]): increases
- PGE2 over time (FIG. 2B) (PGE2; same cultures, days 2-7): Increases

From patent US20080145412A1, “METHOD OF PROMOTING ANGIOGENESIS” (Acologix, Inc., priority 2006, published 2008)
